# Data from patent US20250270170A1, “2,3-DIMETHOXY-5-METHYL-1,4-BENZOQUINONE ALKYL ALCOHOL DERIVATIVE AND USE THEREOF” (BEIJING ANJIANXI BIO-MEDICAL TECHNOLOGY CO., LTD., priority 2021, published 2025).
# Legend:
# [1] = tested on: A549 cells; experiment: Flow cytometry for cell cycle detection, A549; assay type: cell-based, human
# Experimental: (1) Cells were inoculated in a 6-well plate. When about 50% of the cells were adherent and fused, the compound of formula (I) at a concentration of 0 μM, 10 μM, 30 μM, and 90 μM were added, respectively. The plate was placed in an incubator at 37° C. with 5% CO2 to continue culturing, and three time points were set, which were 24 h, 48 h and 72 h, respectively.
# (2) After reaching the designated time point, the cell culture plate was taken out from the incubator, and placed in a biological safety cabinet. A 4 ml centrifuge tube was taken and marked. The supernatant in each well was pipetted out and added to the corresponding 4 ml centrifuge tube. The cells were gently washed with PBS, and the PBS was added to the corresponding centrifuge tube. An appropriate amount of trypsin was added to each well to digest the cells. When the cells were digested to a moderate degree, the old culture medium from the centrifuge tube was added to the corresponding well. The cells were gently pipetted with apipette to form a single-cell suspension, which was pipetted back into the original centrifuge tube. The tube was immediately centrifuged at 1500 rpm for 5 minutes. Then, the supernatant was discarded and the precipitate was retained.
# (3) 2 ml of pre-chilled PBS was added to the centrifuge tube, and centrifuged again at 1500 rpm for 5 minutes. The supernatant was discarded, and the cell debris was removed.
# (4) 1 ml of 75% ethanol was added while pipetting the cells, to make the cells appear as single as possible. Then, the cells were fixed at 4° C. overnight or stored at −20° C. for long-term storage (can be stored for 1 week).
# (5) The fixed cells were taken out, and centrifuged at 1000 rpm for 5 minutes. The ethanol was discarded, and pre-chilled PBS was added to wash the cells. Then, the cells were centrifuged at 1000 rpm for 5 min to remove the residual ethanol on the cells.
# (6) A cell cycle detection kit from Wuhan Promoter Biology Co., Ltd. was used. 100 μl of RNaseA was added, and incubated in a 37° C. water bath for 30 minutes.
# (7) 400 μl of PI was added and mixed well, and incubated at 4° C. in dark for 30 minutes.
# (8) The cell cycle was detected by upflow cytometry.
# [2] = tested on: A549 cells; experiment: Colony formation assay, A549; assay type: cell-based, human; conditions: 50 μM and 150 μM vs 0 μM, about 2 weeks
# Experimental: (1) The cell status was observed under a microscope. Cells in the logarithmic growth phase were selected and digested to make a cell suspension. 20 μl of the cell suspension was taken with a pipette and added to the CountStar disposable cell counting plate for cell counting, and the counting results were recorded.
# (2) A 6-well culture plate was used for colony formation assay. Approximately 1,000 cells were inoculated into each well, and the complete culture medium was added to make up the volume to 2.5 ml per well. The cells were shaked in a figure-8 pattern to disperse the cells evenly. The next day, the compound of formula (I) at different concentrations (0 μM, 50 μM, and 150 μM) were added to the corresponding wells according to the assay plan, and incubated in an incubator at 37° C. with 5% CO2 for about 2 weeks. The culture was terminated when visible colonies appeared.
# (3) The culture plate was taken out, and the old culture medium was discarded. The cells were gently washed twice with PBS.
# (4) 500 μl of 4% paraformaldehyde fixative was added to each well to fix the cells at room temperature for 15 minutes, and then the fixative was discarded.
# (5) 500 μl of 0.1% crystal violet solution was added to each well, and cells were stained at room temperature for at least 15 minutes. The crystal violet was discarded, and the staining solution was slowly washed away with running water. […]
# [3] = tested on: ICR mice; experiment: Example 5: acute toxicity, single gavage administration; assay type: in vivo
# Experimental: (§1) Preparation of the administration formulation of the test sample: A mixture of the compound of formula (I) and ethanol/ethyl acetate (v/v, 1/3) with a ratio of 1:1.5 was dissolved by sonication at room temperature. 2.25 equivalents of compound of formula (I) of PVP were added, and the mixture was stirred vigorously at room temperature for 20 minutes. Then, 2 equivalents of the compound of formula (I) of lactose were added, and the mixture was stirred vigorously at room temperature for 20 minutes. The mixture was dried in an oven at 50° C. and then pulverized to give a yellow powder formulation of the compound of formula (I). Then, an appropriate amount of the formulation of compound of formula (I) was weighed, and an appropriate volume of 0.5% CMC-Na aqueous solution was added. The mixture was vortexed and sonicated to mix evenly (if necessary, shear emulsification may be performed), to give an administration formulation of the test sample. The administration formulation was prepared twice a week, and 3 or 4 days of dosage was prepared each time, which was divided and stored in a 0-8° C. refrigerator for later use. When the test sample was used, a final volume mark was marked on a container, and a required amount of the test sample was weighed (weighing weight of the test sample=theoretical dosage*conversion factor) into a clean and dry container. An appropriate amount of solvent was firstly added, and the mixture was stirred and mixed thoroughly, and sonicated if necessary. The solvent was further added to the final volume mark to dilute and mix evenly, to give a visually uniform formulation. […] The administration formulation of the test sample was stable within 24 hours when being stored airtightly at room temperature in dark, and was stable within 8 days when being stored airtightly at 2° C. to 8° C. in dark.
# (§2) • Species: ICR mice • Grade: SPF grade
# (§3) Number and gender of the animals being used: 40, half male and half female;
# (§4) Body weight: The body weight of the female group was from 25.9 to 29.7 g; the body weight of the male group was from 27.7 to 30.8 g;
# (§5) Age at the time of administration: 38 to 44 days (female), 31 to 44 days (male)
# (§6) Route of Administration: Gavage Administration
# (§7) Administration frequency: once/day
# (§8) Administration period: 1 day
# (§9) The dosage was calculated based on the body weight of the animals weighed on D1 after fasting (with water access) overnight. The feed was given approximately 2 hours after drug administration.
# (§10) The administration formulation in each group was stirred at room temperature for at least 10 minutes, and suspended uniformly with visual inspection before the administration. The administration formulation was required to be continually stirred during the administration.
# (§11) Observation indicators: observation of general physical signs, body weight, food intake, animal anatomy and histopathological examination were included.
# [4] = as above; assay type: in vivo, ICR mice; conditions: both sexes, mouse, in vivo, po, ICR mice, single gavage administration
# Experimental: as §1, §2, §3, §4, §5, §6, §7, §8, §9, §10, §11
smiles,measurement,setting,value
COC1=C(OC)C(=O)C(CCCCCCCCCCOC(=O)Cc2c(C)n(C(=O)c3ccc(Cl)cc3)c3ccc(OC)cc23)=C(C)C1=O [compound of formula (I)],proportion of S phase of cells,"[1]; 10 μM, 24 h",22.94%
same,proportion of S phase of cells,"[1]; 10 μM, 48 h",24.73%
same,proportion of S phase of cells,"[1]; 10 μM, 72 h",19.77%
same,proportion of S phase of cells,"[1]; 30 μM, 24 h",12.52%
same,proportion of S phase of cells,"[1]; 30 μM, 48 h",15.96%
same,proportion of S phase of cells,"[1]; 30 μM, 72 h",10.63%
same,proportion of S phase of cells,"[1]; 90 μM, 24 h",3.92%
same,proportion of S phase of cells,"[1]; 90 μM, 48 h",4.37%
same,proportion of S phase of cells,"[1]; 90 μM, 72 h",5.42%
same,colony-forming ability,[2],decreased significantly
same,clinical observation (general physical signs),[3]; 300 mg/kg/d single gavage,no obvious abnormal symptoms
same,clinical observation (general physical signs),"[3]; 1000 mg/kg/d single gavage, animals other than the dead one",No obvious abnormal symptoms
same,body weight of male animals,"[3]; 3000 mg/kg/d single gavage, D3, vs vehicle control (P<0.05)",significant decrease
same,clinical observation (general physical signs),"[3]; 3000 mg/kg/d single gavage, return to normal on D8",piloerection symptoms from D2 to D7
same,food intake,"[3]; each dosage group (300, 1000, 3000 mg/kg/d) vs vehicle control",basically consistent
same,gross anatomy examination,"[3]; each group, naked eye observation of organs and tissues",No obvious abnormalities
same,LD50 at 1 day,[4],> 3000 mg/kg
same,MTD at 1 day,[4]; read-out: maximum tolerated dose (MTD),300 mg/kg/day
